Values quoted from earlier work, collected in patent publication US11091735B2, “Polyvalent culture medium for anaerobic bacteria under aerobic conditions” (FONDATION MEDITERRANEE INFECTION, priority 2017, dated 2021).

Conditions: stock solution therefore prepared in ethanol

solubility in water | Compound
not soluble in water | Cc1cc(C(C)(C)C)c(O)c(C(C)(C)C)c1 [BHT, Butylhydroxytoluene]
not soluble in water | vitamin E
